Data reported in ChEMBL document CHEMBL4024742, “Pharmaceutical Approaches to Target Antibiotic Resistance Mechanisms” (J Med Chem, 2017).
In brackets after ≈: the same amount, converted by molar mass.

Experiments:
[1] = test system: Staphylococcus epidermidis; assay: Inhibition of biofilm formation in Staphylococcus epidermidis RP62A at 0.045 ug/ml after 24 hrs by MTT assay; assay type: functional
Staphylococcus aureus [2] = assay: Inhibition of biofilm formation in Staphylococcus aureus ATCC 29213 at 0.045 ug/ml after 24 hrs by MTT assay; assay type: functional; details: ATCC 29213, 24 h
Staphylococcus aureus [3] = assay: Inhibition of biofilm formation in Staphylococcus aureus 657 at 0.045 ug/ml after 24 hrs by MTT assay; assay type: functional; details: Staphylococcus aureus, 657, 24 h
Staphylococcus aureus [4] = assay: Inhibition of biofilm formation in Staphylococcus aureus ATCC 25923 at 0.045 ug/ml after 24 hrs by MTT assay; assay type: functional; details: ATCC 25923, 24 h
[5] = test system: Staphylococcus epidermidis; assay: Inhibition of biofilm formation in Staphylococcus epidermidis DSM 3269 at 0.045 ug/ml after 24 hrs by MTT assay; assay type: functional; details: DSM 3269, 24 h
Staphylococcus aureus [6] = assay: Inhibition of biofilm formation in Staphylococcus aureus 702 at 0.045 ug/ml after 24 hrs by MTT assay; assay type: functional; details: Staphylococcus aureus, 702, 24 h
[7] = Inhibition of bacterial AmpC using nitrocefin as substrate incubated for 5 mins followed by substrate addition by UV-vis spectrophotometer; set-up: species or system Bacteria
Staphylococcus aureus [8] = assay: Antibacterial activity against glycopeptide-intermediate Staphylococcus aureus by broth microdilution method; assay type: functional
Staphylococcus aureus [9] = assay: Potentiation of ciprofloxacin induced-antimicrobial activity against Staphylococcus aureus ATCC 29213 assessed as fold reduction in ciprofloxacin MIC at 31.25 uM by broth microdilution method; assay type: functional
Staphylococcus aureus [10] = assay: Antibacterial activity against methicillin-sensitive Staphylococcus aureus by broth microdilution method; assay type: functional
[11] = molecular target: T1, Quinolone resistance protein NorA (Staphylococcus aureus, UniProt P0A0J7); assay: Inhibition of Staphylococcus aureus 1199B NorA assessed as reduction in ethidium bromide efflux by fluorescence assay
T1 sequence (P0A0J7 whole entry): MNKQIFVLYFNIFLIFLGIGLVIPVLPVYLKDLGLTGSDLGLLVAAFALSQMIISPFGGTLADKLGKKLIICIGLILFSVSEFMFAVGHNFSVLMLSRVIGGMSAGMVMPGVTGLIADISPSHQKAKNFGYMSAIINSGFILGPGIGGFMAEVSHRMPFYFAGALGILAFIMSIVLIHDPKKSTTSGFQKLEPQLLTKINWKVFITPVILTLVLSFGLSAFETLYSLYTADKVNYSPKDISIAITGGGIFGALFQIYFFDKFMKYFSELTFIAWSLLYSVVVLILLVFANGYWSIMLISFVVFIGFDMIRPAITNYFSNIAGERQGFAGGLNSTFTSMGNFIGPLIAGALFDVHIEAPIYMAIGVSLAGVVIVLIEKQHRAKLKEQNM

Staphylococcus aureus [12] = assay: Antibiofilm activity against methicillin-resistant Staphylococcus aureus BAA-1765; assay type: functional
Staphylococcus aureus [13] = assay: Antibiofilm activity against methicillin-resistant Staphylococcus aureus BAA-1770; assay type: functional
Staphylococcus aureus [14] = assay: Antibiofilm activity against methicillin-resistant Staphylococcus aureus BAA-43300; assay type: functional
Escherichia coli [15] = assay: Potentiation of cefotaxime induced-antimicrobial activity against Escherichia coli (reference value: 8 to 128 ug/ml); assay type: functional
[16] = Inhibition of bacterial AmpC; set-up: species or system Bacteria
Escherichia coli [17] = assay: Potentiation of 0.016 ug/ml ciprofloxacin induced-antimicrobial activity against Escherichia coli AB1157 assessed as fold reduction in cell viability at 3.13 uM after 4 hrs by time kill assay; assay type: functional
Escherichia coli [18] = assay: Potentiation of piperacillin induced-antimicrobial activity against Escherichia coli AB1157 assessed as fold reduction in piperacillin MIC at 12.5 uM by broth microdilution method; assay type: functional
Escherichia coli [19] = assay: Potentiation of ciprofloxacin induced-antimicrobial activity against Escherichia coli AB1157 assessed as fold reduction in ciprofloxacin MIC at 12.5 uM by broth microdilution method; assay type: functional
Escherichia coli [20] = assay: Potentiation of levofloxacin induced-antimicrobial activity against Escherichia coli AB1157 assessed as fold reduction in levofloxacin MIC at 12.5 uM by broth microdilution method; assay type: functional
Staphylococcus aureus [21] = assay: Antibiofilm activity against methicillin-resistant Staphylococcus aureus BAA-44 after 24 hrs by crystal violet staining based assay; assay type: functional; details: BAA-44, 24 h
Staphylococcus aureus [22] = assay: Antibiofilm activity against methicillin-resistant Staphylococcus aureus BAA-44 at 100 uM after 24 hrs by crystal violet staining based assay; assay type: functional; details: BAA-44, 24 h
Acinetobacter baumannii = assay: Antibiofilm activity against multi drug-resistant Acinetobacter baumannii ATCC 19606 assessed as biofilm dispersion after 24 hrs by crystal violet staining based assay; assay type: functional; details: ATCC 19606 = CIP 70.34 = JCM 6841, 24 h
[23] = Inhibition of Mycobacterium tuberculosis Eis
[24] = Inhibition of bacterial SHV by measuring nitrocefin degradation; set-up: species or system Bacteria
[25] = Inhibition of bacterial CTX-M by measuring nitrocefin degradation; set-up: species or system Bacteria
[26] = Inhibition of bacterial CMY by measuring nitrocefin degradation; set-up: species or system Bacteria
[27] = Inhibition of bacterial KPC by measuring nitrocefin degradation; set-up: species or system Bacteria
Escherichia coli [28] = assay: Potentiation of tetracycline induced-antimicrobial activity against multi drug-resistant Escherichia coli AG112 assessed as fold reduction in tetracycline MIC at 100 ug/ml by broth microdilution method; assay type: functional
Escherichia coli [29] = assay: Potentiation of ciprofloxacin induced-antimicrobial activity against multi drug-resistant Escherichia coli AG112 assessed as fold reduction in ciprofloxacin MIC at 100 ug/ml by broth microdilution method; assay type: functional
Escherichia coli [30] = assay: Potentiation of florfenicol induced-antimicrobial activity against multi drug-resistant Escherichia coli AG112 assessed as fold reduction in florfenicol MIC at 100 ug/ml by broth microdilution method; assay type: functional
Pseudomonas aeruginosa [31] = assay: Antibiofilm activity against wild-type Pseudomonas aeruginosa PAO1 after 24 hrs by crystal violet staining based assay; assay type: functional; details: PAO1, 24 h
Staphylococcus aureus [32] = assay: Inhibition of biofilm formation in Staphylococcus aureus ATCC 43866 at 25 ug/ml after 24 hrs by MTT assay; assay type: functional; details: ATCC 43866, 24 h
Staphylococcus aureus [33] = assay: Antibacterial activity against planktonic Staphylococcus aureus ATCC 29213 after 24 hrs by broth microdilution method; assay type: functional; details: ATCC 29213, 24 h
[34] = test system: Staphylococcus epidermidis; assay: Antibacterial activity against planktonic Staphylococcus epidermidis RP62A after 24 hrs by broth microdilution method; assay type: functional
Staphylococcus aureus [35] = assay: Inhibition of biofilm formation in Staphylococcus aureus ATCC 29213 at 6.2 ug/ml after 24 hrs by MTT assay; assay type: functional; details: ATCC 29213, 24 h
Staphylococcus aureus [36] = assay: Antibacterial activity against planktonic Staphylococcus aureus ATCC 43866 after 24 hrs by broth microdilution method; assay type: functional; details: ATCC 43866, 24 h
[37] = Inhibition of Escherichia coli PBP2
Enterobacter [38] = assay: Antibacterial activity against ESBL/KPC-producing Enterobacter assessed as potentiation of aztreonam induced-antimicrobial activity by measuring aztreonam MIC (Rvb > 16 ug/ml); assay type: functional
Enterobacter [39] = assay: Antimicrobial activity against Enterobacter; assay type: functional
[40] = Inhibition of bacterial beta-lactamase CTX-M-9 using nitrocefin as substrate by spectrophotometric analysis; set-up: species or system Bacteria
Escherichia coli [41] = assay: Antimicrobial activity against Escherichia coli; assay type: functional
Pseudomonas aeruginosa [42] = assay: Antimicrobial activity against Pseudomonas aeruginosa; assay type: functional
[43] = Inhibition of bacterial beta-lactamase CMY-2 using nitrocefin as substrate by spectrophotometric analysis; set-up: species or system Bacteria
[44] = Inhibition of bacterial beta-lactamase TEM-1 using nitrocefin as substrate by spectrophotometric analysis; set-up: species or system Bacteria
[45] = Inhibition of bacterial beta-lactamase KPC-2 using nitrocefin as substrate by spectrophotometric analysis; set-up: species or system Bacteria
[46] = Inhibition of Escherichia coli KPC-2 using nitrocefin as substrate preincubated for 5 mins followed by substrate addition
[47] = Inhibition of Escherichia coli SHV-1 using nitrocefin as substrate preincubated for 5 mins followed by substrate addition

SMILES: O=C(c1cc(Br)ccc1O)c1[nH]c(Cl)c(Cl)c1Br
- inhibition at 0.045 µg/mL [1]: > 50%
- inhibition at 0.045 µg/mL (Staphylococcus aureus [2]): > 50%
- inhibition at 0.045 µg/mL (Staphylococcus aureus [3]): > 50%
- inhibition at 0.045 µg/mL (Staphylococcus aureus [4]): > 50%
- inhibition at 0.045 µg/mL [5]: > 50%
- inhibition at 0.045 µg/mL (Staphylococcus aureus [6]): > 50%

SMILES: O=C(Cc1cccs1)N[C@H](B(O)O)c1cccc(C(=O)O)c1
- Ki [7]: 1 nM

SMILES: COc1cc(O)c2c(C)c(-c3ccccc3)c(=O)[nH]c2c1
- MIC (Staphylococcus aureus [8]): 17.6 to 35.1 µg/mL (≈ 62.6 to 125 µM)
- fold change (FC) (Staphylococcus aureus [9]): 4
- MIC (Staphylococcus aureus [10]): 17.6 to 35.1 µg/mL (≈ 62.6 to 125 µM)
- IC50 [11]: 18000 nM

SMILES: CCCCCc1ccc(C(=O)NCCn2cc(CCCCCc3c[nH]c(NCc4ccc(CCCC)cc4)n3)nn2)cc1
- IC50 (Staphylococcus aureus [12]): 16000 to 18000 nM
- IC50 (Staphylococcus aureus [13]): 16000 to 18000 nM
- IC50 (Staphylococcus aureus [14]): 16000 to 18000 nM

SMILES: O=S(=O)(NCB(O)O)c1ccc(-c2nnn[nH]2)nc1
- MIC (Escherichia coli [15]): 0.5 to 1 µg/mL
- Ki [16]: 0.8 nM

SMILES: CC1(C)Cc2c(C#N)c(SCCc3ccccc3)nc(N3CCOCC3)c2CO1
- fold change (FC) (Escherichia coli [17]): 10000
- fold change (FC) (Escherichia coli [18]): 8
- fold change (FC) (Escherichia coli [19]): 2
- fold change (FC) (Escherichia coli [20]): 4

SMILES: CCCCOc1ccc(/C=C(\C)Cn2cc(CCCCCc3c[nH]c(N)n3)nn2)cc1
- IC50 (Staphylococcus aureus [21]): 8550 nM
- inhibition at 100 µM (Staphylococcus aureus [22]): > 94%
- IC50 (Acinetobacter baumannii): 44700 nM

SMILES: O=C(C[n+]1ccn2cccc2c1-c1ccccc1)c1ccccc1
- IC50 [23]: 188 nM

SMILES: O=C(O)C[C@@H]1CC[C@H](NC(=O)Cc2cccs2)B(O)O1 [VABORBACTAM]
- Ki [24]: 29 to 99 nM
- Ki [25]: 29 to 99 nM
- Ki [26]: 29 to 99 nM
- Ki [27]: 29 to 99 nM

SMILES: c1ccc2c(CN3CCNCC3)cccc2c1
- fold change (FC) (Escherichia coli [28]): 4
- fold change (FC) (Escherichia coli [29]): 4
- fold change (FC) (Escherichia coli [30]): 4

SMILES: Cc1cc2nc(N)[nH]c2cc1C
- IC50 (Pseudomonas aeruginosa [31]): 4000 nM

SMILES: Cc1nn(C)c([N-]C(=O)c2ccc([N+](=O)[O-])cc2)c1[N+]#N
- inhibition at 25 µg/mL (Staphylococcus aureus [32]): 69 to 96%
- MIC (Staphylococcus aureus [33]): 1.5 to 12.5 µg/mL (≈ 5.24 to 43.7 µM)
- MIC [34]: 1.5 to 12.5 µg/mL (≈ 5.24 to 43.7 µM)
- inhibition at 6.2 µg/mL (Staphylococcus aureus [35]): 86.5%
- MIC (Staphylococcus aureus [36]): 1.5 to 12.5 µg/mL (≈ 5.24 to 43.7 µM)

SMILES: NC(=O)[C@@H]1CC[C@@H]2CN1C(=O)N2OS(=O)(=O)[O-].[Na+] [AVIBACTAM SODIUM]
- IC50 [37]: 63000 nM
- MIC (Enterobacter [38]): < 4 µg/mL

SMILES: CC(=O)NNC(=O)[C@@H]1CC[C@@H]2CN1C(=O)N2OS(=O)(=O)[O-].[Na+]
- MIC (Enterobacter [39]): ≤ 2 µg/mL
- IC50 [40]: 8 to 327 nM
- IC50 [37]: 3200 nM
- MIC (Escherichia coli [41]): ≤ 2 µg/mL
- MIC (Pseudomonas aeruginosa [42]): ≤ 2 µg/mL
- IC50 [43]: 8 to 327 nM
- IC50 [44]: 8 to 327 nM
- IC50 [45]: 8 to 327 nM

SMILES: O=C(Cc1cccs1)NC(Cn1cc(C(=O)O)nn1)B(O)O (centres undefined)
- IC50 [46]: 84 nM
- IC50 [47]: 130 nM
